Measured values as given in patent US20020137929A1, “1 - (3-heterocyclylphenyl) isothiourea, -isourea, -guanidine and -amidine herbicidal agents” (Intellectual Property Department, BASF Aktiengesellschaft, priority 1998, published 2002).

Key:
CASOB (Sicklepod) = assay: Postemergence herbicidal evaluation; format: in vivo, Cassia obtusifolia; conditions: postemergence
How it was run: (§1)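 Two-week seedlings sprayed postemergence at 40 psi; formulation: 1:1 acetone/water, 0.5% TWEEN 20; application ≈0.0156–0.500 kg/ha. Greenhouse grow-out, then 0–9 visual scoring at 4–5 weeks.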

[1] = system: CHEAL (Lambsquarters, Common); assay: Postemergence herbicidal evaluation; format: in vivo, Chenopodium album; conditions: postemergence
How it was run: as §1

ECHCG (Barnyardgrass) = assay: Postemergence herbicidal evaluation; format: in vivo, Echinochloa crus-galli; conditions: postemergence
How it was run: as §1

ORYSAT (Rice, Tebonnet) [2] = assay: Postemergence herbicidal evaluation; format: in vivo, Oryza sativa, (L.) Tebonnet; conditions: postemergence
How it was run: as §1

GALAP (Galium) = assay: Preemergence herbicidal evaluation; format: in vivo, Galium aparine; conditions: rated 4-5 weeks after treatment, rating scale 0-9
How it was run: (§2)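 Test compound, dissolved in aqueous acetone, was sprayed over planted soil cups at an equivalent of about 0.0156 to 0.500 kg/ha; seeds had been mixed with potting soil. Greenhouse growth followed, with visual 0-9 scoring of injury at four to five weeks.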

SETVI (Foxtail, Green) = assay: Preemergence herbicidal evaluation; format: in vivo, Setaria viridis; conditions: rated 4-5 weeks after treatment, rating scale 0-9
How it was run: as §2

[3] = system: GLXMAW (Soybean, Williams); assay: Preemergence herbicidal evaluation; format: in vivo, Glycine max, (L.) Merr. cv Williams; conditions: rated 4-5 weeks after treatment, rating scale 0-9
How it was run: as §2

ORYSAT (Rice, Tebonnet) [4] = assay: Preemergence herbicidal evaluation; format: in vivo, Oryza sativa, (L.) Tebonnet; conditions: rated 4-5 weeks after treatment, rating scale 0-9
How it was run: as §2

[5] = system: TRZAWR (Wheat, Winter, cv Riband); assay: Preemergence herbicidal evaluation; format: in vivo, Triticum aestivum; conditions: rated 4-5 weeks after treatment, rating scale 0-9
How it was run: as §2

ZEAMX (Corn, Field) = assay: Preemergence herbicidal evaluation; format: in vivo, Zea mays; conditions: rated 4-5 weeks after treatment, rating scale 0-9
How it was run: as §2

CYPIR (Rice Flatsedge) = assay: Preemergence weed control under flooded paddy conditions; format: in vivo, Cyperus iria; conditions: rated 3-4 weeks after treatment
How it was run: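 Visual injury scored 0-9 against control three to four weeks post-treatment, greenhouse-grown. Application: acetone/water (50/50) solutions dosed directly into flood water (1.5-3 cm over silt loam, planted top 0.5 cm), roughly 0.0313 to 0.500 kg/ha active ingredient.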

MOOVA (Monochoria) = assay: as above; format: in vivo, Monochoria vaginalis; conditions: rated 3-4 weeks after treatment
How it was run: (§3)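 Ratings on a 0-9 visual scale cover stand, vigor, malformation, size, chlorosis and overall appearance relative to a control, taken three to four weeks post-treatment. Application was into flood water over freshly sown silt loam at roughly 0.0313 to 0.500 kg/ha.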

[6] = system: SAGPY (Arrowhead (Pygmaea)); assay: as above; format: in vivo, Sagittaria pygmaea; conditions: rated 3-4 weeks after treatment
How it was run: as §3

Cc1cc(C)cc(CN2C(=O)CSC2=Nc2cc(-n3c(=O)cc(C(F)(F)F)n(C)c3=O)c(F)cc2Cl)c1 [Compound 146, 3-{4-Chloro-5-{[3-(3,5-dimethylbenzyl)-4-oxo-2-thiazolidinylidene]amino}-2-fluorophenyl}-1-methyl-6-(trifluoromethyl)-2,4(1H,3H)-pyrimidinedione]
Herbicidal rating CASOB (CASOB (Sicklepod); rate 0.0156 kg/ha): 1.0 | Herbicidal rating CASOB (CASOB (Sicklepod); rate 0.0313 kg/ha): 2.0 | Herbicidal rating CASOB (CASOB (Sicklepod); rate 0.0625 kg/ha): 4.0 | Herbicidal rating CHEAL ([1]; rate 0.0156 kg/ha): 9.0 | Herbicidal rating CHEAL ([1]; rate 0.0313 kg/ha): 9.0 | Herbicidal rating CHEAL ([1]; rate 0.0625 kg/ha): 9.0 | Herbicidal rating ECHCG (ECHCG (Barnyardgrass); rate 0.0156 kg/ha): 1.0 | Herbicidal rating ECHCG (ECHCG (Barnyardgrass); rate 0.0313 kg/ha): 1.0 | Herbicidal rating ECHCG (ECHCG (Barnyardgrass); rate 0.0625 kg/ha): 2.0 | Herbicidal rating ORYSAT (ORYSAT (Rice, Tebonnet) [2]; rate 0.0156 kg/ha): 2.0 | Herbicidal rating ORYSAT (ORYSAT (Rice, Tebonnet) [2]; rate 0.0313 kg/ha): 3.5 | Herbicidal rating ORYSAT (ORYSAT (Rice, Tebonnet) [2]; rate 0.0625 kg/ha): 4.0 | Preemergence herbicidal rating GALAP (GALAP (Galium); rate 0.0156 kg/ha): 1.0 | Preemergence herbicidal rating GALAP (GALAP (Galium); rate 0.0313 kg/ha): 0.0 | Preemergence herbicidal rating GALAP (GALAP (Galium); rate 0.0625 kg/ha): 0.0 | Preemergence herbicidal rating GALAP (GALAP (Galium); rate 0.1250 kg/ha): 2.0 | Preemergence herbicidal rating GALAP (GALAP (Galium); rate 0.2500 kg/ha): 2.0 | Preemergence herbicidal rating SETVI (SETVI (Foxtail, Green); rate 0.0156 kg/ha): 0.0 | Preemergence herbicidal rating SETVI (SETVI (Foxtail, Green); rate 0.0313 kg/ha): 0.0 | Preemergence herbicidal rating SETVI (SETVI (Foxtail, Green); rate 0.0625 kg/ha): 0.0 | Preemergence herbicidal rating SETVI (SETVI (Foxtail, Green); rate 0.1250 kg/ha): 3.0 | Preemergence herbicidal rating SETVI (SETVI (Foxtail, Green); rate 0.2500 kg/ha): 5.0 | Preemergence herbicidal rating GLXMAW ([3]; rate 0.0156 kg/ha): 0.0 | Preemergence herbicidal rating GLXMAW ([3]; rate 0.0313 kg/ha): 0.0 | Preemergence herbicidal rating GLXMAW ([3]; rate 0.0625 kg/ha): 0.0 | Preemergence herbicidal rating GLXMAW ([3]; rate 0.1250 kg/ha): 0.0 | Preemergence herbicidal rating GLXMAW ([3]; rate 0.2500 kg/ha): 1.0 | Preemergence herbicidal rating ORYSAT (ORYSAT (Rice, Tebonnet) [4]; rate 0.0156 kg/ha): 0.0 | Preemergence herbicidal rating ORYSAT (ORYSAT (Rice, Tebonnet) [4]; rate 0.0313 kg/ha): 0.0 | Preemergence herbicidal rating ORYSAT (ORYSAT (Rice, Tebonnet) [4]; rate 0.0625 kg/ha): 0.0 | Preemergence herbicidal rating ORYSAT (ORYSAT (Rice, Tebonnet) [4]; rate 0.1250 kg/ha): 0.0 | Preemergence herbicidal rating ORYSAT (ORYSAT (Rice, Tebonnet) [4]; rate 0.2500 kg/ha): 1.0 | Preemergence herbicidal rating TRZAWR ([5]; rate 0.0156 kg/ha): 0.0 | Preemergence herbicidal rating TRZAWR ([5]; rate 0.0313 kg/ha): 0.0 | Preemergence herbicidal rating TRZAWR ([5]; rate 0.0625 kg/ha): 0.0 | Preemergence herbicidal rating TRZAWR ([5]; rate 0.1250 kg/ha): 0.0 | Preemergence herbicidal rating TRZAWR ([5]; rate 0.2500 kg/ha): 1.0 | Preemergence herbicidal rating ZEAMX (ZEAMX (Corn, Field); rate 0.0156 kg/ha): 0.0 | Preemergence herbicidal rating ZEAMX (ZEAMX (Corn, Field); rate 0.0313 kg/ha): 0.0 | Preemergence herbicidal rating ZEAMX (ZEAMX (Corn, Field); rate 0.0625 kg/ha): 0.0 | Preemergence herbicidal rating ZEAMX (ZEAMX (Corn, Field); rate 0.1250 kg/ha): 0.0 | Preemergence herbicidal rating ZEAMX (ZEAMX (Corn, Field); rate 0.2500 kg/ha): 0.0 | herbicidal effect rating, CYPIR (CYPIR (Rice Flatsedge); 0.0313 kg/ha): 4.0 | herbicidal effect rating, CYPIR (CYPIR (Rice Flatsedge); 0.0625 kg/ha): 6.0 | herbicidal effect rating, CYPIR (CYPIR (Rice Flatsedge); 0.1250 kg/ha): 6.0 | herbicidal effect rating, CYPIR (CYPIR (Rice Flatsedge); 0.2500 kg/ha): 7.0 | herbicidal effect rating, MOOVA (MOOVA (Monochoria); 0.0313 kg/ha): 4.0 | herbicidal effect rating, MOOVA (MOOVA (Monochoria); 0.0625 kg/ha): 6.0 | herbicidal effect rating, MOOVA (MOOVA (Monochoria); 0.1250 kg/ha): 6.0 | herbicidal effect rating, MOOVA (MOOVA (Monochoria); 0.2500 kg/ha): 9.0 | herbicidal effect rating, SAGPY ([6]; 0.0313 kg/ha): 0.0 | herbicidal effect rating, SAGPY ([6]; 0.0625 kg/ha): 0.0 | herbicidal effect rating, SAGPY ([6]; 0.1250 kg/ha): 3.0 | herbicidal effect rating, SAGPY ([6]; 0.2500 kg/ha): 4.0

Cc1ccc(CN2C(=O)CSC2=Nc2cc(-n3c(=O)cc(C(F)(F)F)n(C)c3=O)c(F)cc2Cl)cc1Cl [Compound 149, 3-{4-Chloro-5-{[3-(3-chloro-4-methylbenzyl)-4-oxo-2-thiazolidinylidene]amino}-2-fluorophenyl}-1-methyl-6-(trifluoromethyl)-2,4(1H,3H)-pyrimidinedione]
Herbicidal rating CASOB (CASOB (Sicklepod); rate 0.0156 kg/ha): 0.0 | Herbicidal rating CASOB (CASOB (Sicklepod); rate 0.0313 kg/ha): 0.0 | Herbicidal rating CASOB (CASOB (Sicklepod); rate 0.0625 kg/ha): 0.0 | Herbicidal rating CHEAL ([1]; rate 0.0156 kg/ha): 3.0 | Herbicidal rating CHEAL ([1]; rate 0.0313 kg/ha): 3.0 | Herbicidal rating CHEAL ([1]; rate 0.0625 kg/ha): 4.0 | Herbicidal rating ECHCG (ECHCG (Barnyardgrass); rate 0.0156 kg/ha): 0.0 | Herbicidal rating ECHCG (ECHCG (Barnyardgrass); rate 0.0313 kg/ha): 0.0 | Herbicidal rating ECHCG (ECHCG (Barnyardgrass); rate 0.0625 kg/ha): 0.0 | Herbicidal rating ORYSAT (ORYSAT (Rice, Tebonnet) [2]; rate 0.0156 kg/ha): 0.5 | Herbicidal rating ORYSAT (ORYSAT (Rice, Tebonnet) [2]; rate 0.0313 kg/ha): 1.0 | Herbicidal rating ORYSAT (ORYSAT (Rice, Tebonnet) [2]; rate 0.0625 kg/ha): 1.0 | Preemergence herbicidal rating GALAP (GALAP (Galium); rate 0.1250 kg/ha): 0.0 | Preemergence herbicidal rating GALAP (GALAP (Galium); rate 0.2500 kg/ha): 0.0 | Preemergence herbicidal rating SETVI (SETVI (Foxtail, Green); rate 0.1250 kg/ha): 0.0 | Preemergence herbicidal rating SETVI (SETVI (Foxtail, Green); rate 0.2500 kg/ha): 0.0 | Preemergence herbicidal rating GLXMAW ([3]; rate 0.1250 kg/ha): 3.0 | Preemergence herbicidal rating GLXMAW ([3]; rate 0.2500 kg/ha): 7.0 | Preemergence herbicidal rating ORYSAT (ORYSAT (Rice, Tebonnet) [4]; rate 0.1250 kg/ha): 2.0 | Preemergence herbicidal rating ORYSAT (ORYSAT (Rice, Tebonnet) [4]; rate 0.2500 kg/ha): 2.0 | Preemergence herbicidal rating TRZAWR ([5]; rate 0.1250 kg/ha): 0.0 | Preemergence herbicidal rating TRZAWR ([5]; rate 0.2500 kg/ha): 2.0 | Preemergence herbicidal rating ZEAMX (ZEAMX (Corn, Field); rate 0.1250 kg/ha): 0.0 | Preemergence herbicidal rating ZEAMX (ZEAMX (Corn, Field); rate 0.2500 kg/ha): 2.0 | herbicidal effect rating, CYPIR (CYPIR (Rice Flatsedge); 0.0313 kg/ha): 3.0 | herbicidal effect rating, CYPIR (CYPIR (Rice Flatsedge); 0.0625 kg/ha): 4.0 | herbicidal effect rating, CYPIR (CYPIR (Rice Flatsedge); 0.1250 kg/ha): 7.0 | herbicidal effect rating, CYPIR (CYPIR (Rice Flatsedge); 0.2500 kg/ha): 4.0 | herbicidal effect rating, MOOVA (MOOVA (Monochoria); 0.0313 kg/ha): 5.0 | herbicidal effect rating, MOOVA (MOOVA (Monochoria); 0.0625 kg/ha): 7.0 | herbicidal effect rating, MOOVA (MOOVA (Monochoria); 0.1250 kg/ha): 7.0 | herbicidal effect rating, MOOVA (MOOVA (Monochoria); 0.2500 kg/ha): 7.0 | herbicidal effect rating, SAGPY ([6]; 0.0313 kg/ha): 0.0 | herbicidal effect rating, SAGPY ([6]; 0.0625 kg/ha): 2.0 | herbicidal effect rating, SAGPY ([6]; 0.1250 kg/ha): 3.0 | herbicidal effect rating, SAGPY ([6]; 0.2500 kg/ha): 3.0
